Drawing on patent US8822464B2, “N-aryl-piperazine derivatives and their use as positive allosteric modulators of mGluR5 receptors” (Boehringer Ingelheim International GmbH, priority 2011, dated 2014), this text covers EC50 for 53 molecules.

SMILES strings stand for the structures.

In the assay the target is T1, human recombinant mGluR5 (Homo sapiens, UniProt P41594).
T1 construct: expressed in transfected cells; host or cells: HEK 293 cell line; cultured with tetracycline, hygromycin and geneticin; tetracycline withdrawn 3-7 days before the assay
T1 sequence (P41594 21-1212): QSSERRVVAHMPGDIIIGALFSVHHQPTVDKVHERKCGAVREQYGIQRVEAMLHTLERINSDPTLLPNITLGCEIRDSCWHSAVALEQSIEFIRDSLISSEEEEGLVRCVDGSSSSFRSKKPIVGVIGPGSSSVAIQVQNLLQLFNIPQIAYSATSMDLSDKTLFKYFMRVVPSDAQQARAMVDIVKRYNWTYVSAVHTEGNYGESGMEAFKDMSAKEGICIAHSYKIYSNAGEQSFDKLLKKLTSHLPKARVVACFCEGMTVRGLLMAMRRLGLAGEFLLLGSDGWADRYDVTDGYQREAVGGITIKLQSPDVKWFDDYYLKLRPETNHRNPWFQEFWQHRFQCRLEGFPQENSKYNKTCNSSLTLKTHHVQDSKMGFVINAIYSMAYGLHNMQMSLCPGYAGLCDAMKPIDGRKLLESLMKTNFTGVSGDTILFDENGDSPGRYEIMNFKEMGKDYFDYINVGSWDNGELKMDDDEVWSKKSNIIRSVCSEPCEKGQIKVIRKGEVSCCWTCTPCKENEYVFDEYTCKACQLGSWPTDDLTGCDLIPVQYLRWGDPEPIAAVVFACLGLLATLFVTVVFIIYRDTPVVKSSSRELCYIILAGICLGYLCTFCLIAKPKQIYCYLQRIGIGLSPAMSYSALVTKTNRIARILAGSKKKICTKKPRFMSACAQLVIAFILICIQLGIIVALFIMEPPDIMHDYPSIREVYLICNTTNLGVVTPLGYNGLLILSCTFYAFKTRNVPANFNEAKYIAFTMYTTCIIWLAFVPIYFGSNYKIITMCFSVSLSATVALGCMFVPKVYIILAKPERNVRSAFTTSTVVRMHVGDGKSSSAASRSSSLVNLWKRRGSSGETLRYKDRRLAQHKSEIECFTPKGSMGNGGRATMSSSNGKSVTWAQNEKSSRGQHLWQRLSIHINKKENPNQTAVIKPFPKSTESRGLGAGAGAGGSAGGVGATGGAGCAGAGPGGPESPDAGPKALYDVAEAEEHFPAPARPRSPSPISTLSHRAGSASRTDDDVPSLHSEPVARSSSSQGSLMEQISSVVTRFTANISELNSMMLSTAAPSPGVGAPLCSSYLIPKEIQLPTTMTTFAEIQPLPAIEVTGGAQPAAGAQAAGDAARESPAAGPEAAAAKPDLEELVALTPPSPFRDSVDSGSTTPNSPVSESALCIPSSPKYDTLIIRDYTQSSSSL
Briefly: positive modulation of mGluR5, calcium based FLIPR assay in HEK 293 cells. Particulars: HEK 293 cell line expressing human recombinant mGluR5; peak height of Ca release fluorescence signal after glutamate at approximately 5% basal stimulation; nonlinear regression. As for the experimental part:
The positive modulation of mGluR5 is measured in a HEK 293 cell line expressing human recombinant mGluR5 and is detected with calcium based FLIPR assay. The cells are cultured with DMEM supplemented with 10% FCS, 2 μg/mL tetracycline, 100 μg/mL hygromycin and 500 μg/mL gneticin. The cell culture media is exchanged for tetracycline-free cell culture media 3-7 days before the assay. One day before the assay the cell culture medium is exchanged to DMEM without glutamine and phenol red and supplemented with 10% FCS, 100 μg/mL hygromycin and 500 μg/mL geneticin. On the assay day, the medium of the subconfluent cultures is removed and the cells are detached by addition of 2.5 ml EDTA(0.02%) per 175 cm2 culture flask for 1 minute. The cells are resuspend in Ringer solution (140 mM NaCl, 5 mM KCl, 2.5 mM CaCl2, 1.5 mM MgCl2, 5 mM Glucose, 10 mM Hepes; adjusted to pH 7.4 with NaOH), pooled and Ringer solution added to adjust the volume to 50 mL. The cell suspension is centrifuged for 5 min at 1500 U/min (425 g). The supernatant is removed and the cells washed a second time with 50 ml fresh Ringer solution and centrifuged again as before. The supernatant is again removed and the pellet resuspended in Ringer solution to 1,000,000 cells/ml (1×10^6 cells/mL). The cells are plated onto BD BioCoat Poly-D-Lysine 384 well plates (20.000 cells/well; 20 μl/well). The lid covered plates are then incubated until use at 37° C./10% CO2. For dye loading, 20 μl of Calcium-4 assay kit solution (prepared according to the manufacturer's description in Ringer solution) are added to the cells and the plates are incubated for 80 min 37° C. and then 10 min at room temperature.
Controls, Compound Dilution and Assay Execution:
Each assay plate contained wells with “high” and “low” controls:
Low controls 1% DMSO/ringer solution+basal glutamate activation (defined as 100% CTL).
High controls 10 μM CDPPB+basal glutamate activation (defined as 200% CTL).
Test compounds are dissolved and diluted in DMSO to 100-fold the desired concentrations. In a second step, the compounds are diluted in Ringer solution such that the compounds are 4-fold more concentrated than the desired final assay concentration. The final DMSO concentration was 1%.
20 μl of each compound solution are then transferred to the assay plate and the Ca2+ kinetic is measured to determine any intrinsic compound activity. After 5 min incubation in the FLIPR device, the second stimulation with 20 μl of glutamate in Ringer solution (glutamate concentration adjusted to approximately 5% basal stimulation of the maximal possible glutamate effect) is added and the kinetic Ca2+ response of the wells was measured for the modulation effect.
The peak height of the Ca release related fluorescence signal (9-66) is used for the EC50. The EC50 of the modulation is calculated over a nonlinear regression with GraphPad Prism (Table 1).
The EC50 is the concentration that produces a half-maximal response. With `O=C(Cn1nc(-c2ccc(F)cn2)cc1-c1ccccc1)N1CCN(c2ccccn2)CC1` [Example 7.01.58], the EC50 amounted to 211 nM.

For `COc1cc(N2CCN(C(=O)Cn3nc(-c4ccc(F)cn4)cc3-c3ccccc3)CC2)ncn1` [Example 7.01.61], the EC50 came out at 246 nM.

In the case of `Cc1cc(-c2cc(C3CC3)n(CC(=O)N3CCN(c4ncccn4)CC3)n2)ccc1F` [Example 7.01.42], the EC50 stood at 101 nM.

For the molecule `CCc1cc(-c2ccc(C)c(F)c2)nn1CC(=O)N1CCN(c2ccccn2)CC1` [Example 7.01.182], the EC50 came to 434 nM.

On to `N#Cc1cccc(-c2cc(-c3ccccc3)n(CC(=O)N3CCN(c4ncccn4)CC3)n2)c1` [Example 7.01.167], for which the EC50 is 7 nM.

In the case of `COc1cc(-c2cc(C(C)C)n(CC(=O)N3CCN(c4ncc(Br)cn4)CC3)n2)ccc1F` [Example 7.01.50], the EC50 stood at 512 nM.

`COc1ccc(-c2cc(C(C)C)n(CC(=O)N3CCN(c4cc(C)ccn4)CC3)n2)cc1` [Example 7.01.21]: the EC50 came to 111 nM.

Consider `COc1ccc(-c2cc(C(C)C)n(CC(=O)N3CCN(c4cc(C)ccn4)CC3)n2)cc1C` [Example 7.01.52], for which the EC50 was 431 nM.

For the molecule `COc1cc(N2CCN(C(=O)Cn3nc(-c4ccc(OC(F)F)cc4)cc3-c3ccccc3)CC2)ncn1` [Example 7.01.176], the EC50 worked out at 10 nM.

As to `Cc1nc(-c2cc(-c3ccccc3)n(CC(=O)N3CCN(c4ncccn4)CC3)n2)ccc1F` [Example 7.01.154], the EC50 was determined as 11 nM.

As to `Cc1cc(-c2cc(-c3ccccc3)n(CC(=O)N3CCN(c4ncccn4)CC3)n2)ccc1F` [Example 7.01.01, 2-(3-(4-Fluoro-3-methyl-phenyl)-5-phenyl-pyrazol-1-yl)-1-(4-(2-pyrimidinyl)-1-piperazinyl)-ethanon], the EC50 came out at 6 nM.

As to `CCc1cc(-c2ccc(C)c(C)c2)nn1CC(=O)N1CCN(c2ncccn2)CC1` [Example 7.01.87], the EC50 is 69 nM.

Turning to `COc1cc(N2CCN(C(=O)Cn3nc(-c4ccc(F)c(C)c4)cc3C3CCCCC3)CC2)ncn1` [Example 7.01.36], the EC50 is 308 nM.

For the molecule `COc1ccnc(N2CCN(C(=O)Cn3nc(-c4ccc(F)cc4)cc3-c3ccc(F)cc3)CC2)c1` [Example 7.01.16], the EC50 is 32 nM.

Take `O=C(Cn1nc(-c2ccccc2)cc1-c1ccccc1)N1CCN(c2cccnc2)CC1` [Example 7.02.06]: the EC50 turned out to be 581 nM.

Consider `Cc1cccc(-c2cc(-c3ccccc3)nn2CC(=O)N2CCN(c3ncccn3)CC2)c1` [Example 7.01.164], for which the EC50 was 42 nM.

As for `O=C(Cn1nc(-c2ccccc2F)cc1-c1ccccc1F)N1CCN(c2ncccn2)CC1` [Example 7.04.01], the EC50 stood at 696 nM.

`CCOc1ccccc1N1CCN(C(=O)Cn2nc(-c3ccccc3)cc2-c2ccccc2)CC1` [Example 7.01.11]: the EC50 was 1420 nM.

In the case of `COCCCc1cc(-c2ccc(F)c(C)c2)nn1CC(=O)N1CCN(c2ncccn2)CC1` [Example 7.01.107], the EC50 amounted to 64 nM.

Consider `COc1cnc(N2CCN(C(=O)Cn3nc(-c4ccc(F)cc4)cc3C(C)C)CC2)nc1` [Example 7.01.89], for which the EC50 is 577 nM.

As to `COc1cc(N2CCN(C(=O)Cn3nc(-c4ccc(F)c(C)c4)cc3CC(C)C)CC2)ncn1` [Example 7.01.121], the EC50 was 34 nM.

Turning to `O=C(Cn1nc(-c2ccccc2)cc1-c1ccccc1)N1CCN(c2ccc(Cl)cn2)CC1` [Example 7.01.09], the concentration giving a half-maximal response (EC50) was determined as 373 nM.

Consider `COc1cc(-c2cc(C(C)C)n(CC(=O)N3CCN(c4ncccn4)CC3)n2)ccc1F` [Example 7.01.51], for which the EC50 is 485 nM.

As for `Cc1cc(-c2cc(C3CCCCC3)n(CC(=O)N3CCN(c4cccnn4)CC3)n2)ccc1F` [Example 7.01.38], the EC50 was 100 nM.

Regarding `CCc1cc(-c2cc(C)c(F)c(C)c2)nn1CC(=O)N1CCN(c2ncc(OC)cn2)CC1` [Example 7.01.141], the EC50 was determined as 346 nM.

As to `CCc1cc(-c2ccc(F)cc2)nn1CC(=O)N1CCN(c2ccccn2)CC1` [Example 7.01.73], the EC50 amounted to 419 nM.

In the case of `COc1cc(N2CCN(C(=O)Cn3nc(-c4ccc(C)c(F)c4)cc3-c3ccccc3)CC2)ncn1` [Example 7.01.190], the EC50 amounted to 47 nM.

As to `COc1cc(-c2cc(-c3ccccc3)n(CC(=O)N3CCN(c4ncccn4)CC3)n2)ccc1F` [Example 7.01.150], the EC50 was found to be 5 nM.

Regarding `Cc1ccc(-c2cc(-c3ccccc3)n(CC(=O)N3CCN(c4ncccn4)CC3)n2)nc1C` [Example 7.01.124], the EC50 turned out to be 8 nM.

In the case of `Cc1cc(-c2cc(-c3ccccc3)n(CC(=O)N3CCN(c4cc(OCC(C)O)ncn4)CC3)n2)ccc1F` (centres unmarked) [Example 7.05.02], the EC50 is 38 nM.

Take `CCc1cc(-c2ccc(F)c(C)c2)nn1CC(=O)N1CCN(c2cc(OC)ccn2)CC1` [Example 7.01.68]: the 50% effective concentration (EC50) was determined as 74 nM.

On to `O=C(Cn1nc(-c2ccccc2)cc1-c1ccccc1)N1CCN(c2ccc(Cl)nn2)CC1` [Example 7.01.12], for which the 50% effective concentration (EC50) worked out at 216 nM.

Consider `COc1ccnc(N2CCN(C(=O)Cn3nc(-c4ccc(F)c(C)c4)cc3C3CCCCC3)CC2)c1` [Example 7.01.37], for which the EC50 amounted to 298 nM.

As for `COc1ccc(-c2cc(C(C)C)n(CC(=O)N3CCN(c4ccccn4)CC3)n2)cc1` [Example 7.01.20], the EC50 worked out at 183 nM.

`COCc1cc(-c2ccc(F)c(C)c2)nn1CC(=O)N1CCN(c2ccccn2)CC1` [Example 7.02.16]: the EC50 came to 237 nM.

With `Cc1cc(-c2cc(C)n(CC(=O)N3CCN(c4ncnc5[nH]cnc45)CC3)n2)ccc1F` [Example 7.02.25], the EC50 came to 92 nM.

In the case of `Cc1cc(-c2cc(C(C)C)n(CC(=O)N3CCN(c4ccccn4)CC3)n2)ccc1F` [Example 7.01.26], the EC50 amounted to 138 nM.

For the molecule `Cc1cc(-c2cc(CC(C)C)n(CC(=O)N3CCN(c4ncccn4)CC3)n2)ccc1F` [Example 7.01.118], the EC50 worked out at 18 nM.

In the case of `CCc1cc(-c2cccc(C)c2)nn1CC(=O)N1CCN(c2ccccn2)CC1` [Example 7.01.95], the EC50 worked out at 237 nM.

On to `COCc1cc(-c2ccc(F)c(C)c2)nn1CC(=O)N1CCN(c2cccnn2)CC1` [Example 7.02.19], for which the EC50 was 1200 nM.

`O=C(Cn1nc(-c2ccccc2)cc1-c1ccccc1)N1CCN(c2nccc(C(F)(F)F)n2)CC1` [Example 7.02.12]: the EC50 is 1260 nM.

Regarding `O=C(Cn1nc(-c2ccccc2)cc1-c1cc(Cl)cs1)N1CCN(c2ncccn2)CC1` [Example 7.01.143], the EC50 stood at 20 nM.

As for `COc1cc(-c2cc(-c3ccccc3)nn2CC(=O)N2CCN(c3ncccn3)CC2)ccc1F` [Example 7.01.153], the EC50 amounted to 276 nM.

For the molecule `Cc1cc(-c2cc(-c3ccccc3)n(CC(=O)N3CCN(c4ccccn4)CC3)n2)ncc1F` [Example 7.01.158], the EC50 turned out to be 79 nM.

For `CCc1cc(-c2cc(C)c(F)c(C)c2)nn1CC(=O)N1CCN(c2cc(OC)ncn2)CC1` [Example 7.01.140], the EC50 was determined as 707 nM.

Turning to `COc1cccc(N2CCN(C(=O)Cn3nc(-c4ccc(F)c(C)c4)cc3-c3ccccc3)CC2)c1` [Example 7.01.144], the EC50 was found to be 57 nM.

In the case of `COc1cc(N2CCN(C(=O)Cn3nc(-c4ccc(C(F)F)cc4)cc3-c3ccccc3)CC2)ncn1` [Example 7.01.192], the EC50 is 15 nM.

As for `COc1cnc(N2CCN(C(=O)Cn3nc(-c4ccc(C)c(C)c4)cc3-c3ccccc3)CC2)nc1` [Example 7.01.103], the EC50 is 24 nM.

`COc1cc(N2CCN(C(=O)Cn3nc(-c4ccc(OC)c(C)c4)cc3-c3ccccc3)CC2)ncn1` [Example 7.01.184]: the EC50 is 145 nM.

Regarding `COc1ccnc(N2CCN(C(=O)Cn3nc(-c4ccc(C)cn4)cc3-c3ccccc3)CC2)c1` [Example 7.01.119], the EC50 was determined as 19 nM.

On to `COc1cc(N2CCN(C(=O)Cn3nc(-c4cccc(C)c4)cc3-c3ccccc3)CC2)ncn1` [Example 7.01.173], for which the EC50 was determined as 11 nM.

On to `N#Cc1cccnc1N1CCN(C(=O)Cn2nc(-c3ccccc3)cc2-c2ccccc2)CC1` [Example 7.02.09], for which the EC50 was found to be 298 nM.

As for `COc1cc(N2CCN(C(=O)Cn3nc(-c4cccc(Cl)c4)cc3-c3ccccc3)CC2)ncn1` [Example 7.01.148], the EC50 is 20 nM.
